Source: ChEMBL document CHEMBL3137667, “[Drug-induced liver injury; fourteenth updated edition of the bibliographic database of liver injuries and related drugs]” (Gastroenterol Clin Biol, 2004)

How the values were obtained:
[1] = human
[2] = human, serum, 4383 h
[3] = Highest frequency of acute liver toxicity observed during clinical trials, expressed as a percentage. [column '% AIGUE' in source]; settings: human
[4] = human; remark: listed apart in the source
[5] = human; remark: listed apart in the source
[6] = Times to onset, minimal and maximal, observed in the indexed observations. [column 'DELAI' in source]; settings: human
[7] = human; remark: listed apart in the source
[8] = human; remark: listed apart in the source
[9] = human, serum
[10] = human; remark: listed apart in the source
[11] = Highest frequency of moderate liver toxicity observed during clinical trials, expressed as a percentage. [column '% BIOL' in source]; settings: human
[12] = human; remark: listed apart in the source
[13] = human, serum; remark: listed apart in the source
[14] = human; remark: listed apart in the source
[15] = human; remark: listed apart in the source
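For Hepatotoxicity (association with vascular disease) in this document: count of indexed literature references reporting vascular liver injury in humans, e.g. peliosis hepatitis, hepatic veno-occlusive disease or Budd-Chiari syndrome.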
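For Hepatotoxicity (benign tumour) in this document: value is a count of indexed literature references citing a benign tumour confirmed by histopathology.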
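For Hepatotoxicity (choleostasis) in this document: human cholestatic liver injury, shown by histopathology or by peak ALT or AST elevation over alkaline phosphatase ratio below 2, value counts indexed literature reports.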
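For Hepatotoxicity (chronic liver disease) in this document: chronic liver injury confirmed by histopathology or persistently raised serum aminotransferase activity beyond 6 months, value given as the count of indexed literature references.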
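For Hepatotoxicity (cirrhosis) in this document: value is a count of indexed literature references reporting cirrhosis confirmed by histopathology.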
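For Hepatotoxicity (cytolytic) in this document: human cytolytic liver injury, shown by histopathology or by a ratio above 5 of peak ALT or AST elevation to alkaline phosphatase elevation, value counts indexed references.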
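For Hepatotoxicity (granulomatous hepatitis) in this document: value is a count of indexed literature references reporting granulomatous liver disease confirmed by histopathology.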
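For Hepatotoxicity (malignant tumour) in this document: malignant tumour confirmed by histopathology, value gives the count of indexed literature references reporting it.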
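For Hepatotoxicity (severe hepatitis) in this document: human clinical data: severe hepatitis, meaning potentially life-threatening liver failure or clinically observed cases, the value counts how many indexed literature references report it.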
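For Hepatotoxicity (steatosis) in this document: steatosis confirmed by histopathology, value is the count of indexed references.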

| Structure (SMILES) | Hepatotoxicity (malignant tumour) [1] | Hepatotoxicity (chronic liver disease) [2] | Hepatotoxicity (acute) [3] | Hepatotoxicity (cytolytic) [4] | Hepatotoxicity (steatosis) [5] | Hepatotoxicity (time to onset) [6] | Hepatotoxicity (benign tumour) [7] | Hepatotoxicity (choleostasis) [8] | Hepatotoxicity (moderate) [9] | Hepatotoxicity (cirrhosis) [10] | Hepatotoxicity (moderate) [11] | Hepatotoxicity (severe hepatitis) [12] | Hepatotoxicity (acute) [13] | Hepatotoxicity (association with vascular disease) [14] | Hepatotoxicity (granulomatous hepatitis) [15] |
| --- | --- | --- | --- | --- | --- | --- | --- | --- | --- | --- | --- | --- | --- | --- | --- |
| COc1ccc2c(c1)c(CC(=O)OCC(=O)O)c(C)n2C(=O)c1ccc(Cl)cc1 [ACEMETACIN] | 0 | 0 | 0% | 0 | 0 | 12 weeks | 0 | 1 | 0 | 0 | 0% | 0 | 1 | 0 | 0 |
| CC(=O)Nc1nnc(S(N)(=O)=O)s1 [ACETAZOLAMIDE] | 0 | 0 | 0% | 0 | 1 | 1 month | 0 | 1 | 0 | 0 | 0% | 1 | 1 | 0 | 0 |
| C[S+](CC[C@H](N)C(=O)[O-])C[C@H]1O[C@@H](n2cnc3c(N)ncnc32)[C@H](O)[C@@H]1O (stereo not given in full) [ADEMETIONINE] | 0 | 0 | 0% | 1 | 0 | 3 days | 0 | 0 | 2 | 0 | 5% | 0 | 1 | 0 | 0 |
| COc1cc2nc(N(C)CCCNC(=O)C3CCCO3)nc(N)c2cc1OC (stereo not given) [ALFUZOSIN] | 0 | 0 | 0% | 1 | 0 | 9 months | 0 | 0 | 0 | 0 | 0% | 0 | 1 | 0 | 0 |
| C=CCNc1nc(NCC=C)nc(N2CCN(C(c3ccc(F)cc3)c3ccc(F)cc3)CC2)n1 [ALMITRINE] | 0 | 0 | 0% | 1 | 0 | 1 week | 0 | 0 | 0 | 0 | 0% | 0 | 1 | 0 | 0 |
| Cc1cn([C@H]2C[C@H](F)[C@@H](CO)O2)c(=O)[nH]c1=O [ALOVUDINE] | 0 | 0 | 3.3% | 0 | 0 | < 3 months | 0 | 0 | 0 | 0 | 0% | 1 | 1 | 0 | 0 |
| N=C(N)NC(=O)c1nc(Cl)c(N)nc1N [AMILORIDE] | 0 | 0 | 0% | 0 | 0 | 2 weeks - 6 months | 0 | 0 | 2 | 0 | 1.1% | 0 | 0 | 0 | 0 |
| Nc1ccc(C(=O)[O-])cc1.[K+] [AMINOBENZOATE POTASSIUM] | 0 | 0 | 0% | 1 | 0 | 2 months | 0 | 0 | 1 | 0 | 38% | 0 | 1 | 0 | 0 |
| Nc1ccc(C(=O)O)cc1 [AMINOBENZOIC ACID] | 0 | 0 | 0% | 2 | 0 | 4 weeks - 2 months | 0 | 0 | 1 | 0 | 35% | 0 | 3 | 0 | 0 |
| CCN1CCCC1CNC(=O)c1cc(S(=O)(=O)CC)c(N)cc1OC (stereo not given) [AMISULPRIDE] | 0 | 0 | 0% | 0 | 0 | 2 weeks | 0 | 0 | 1 | 0 | 0% | 0 | 0 | 0 | 0 |
| CC(=O)Nc1ccc(/C=N/NC(N)=S)cc1 [AMITHIOZONE] | 0 | 0 | 2.5% | 5 | 2 | 1.5 months - 6 months | 0 | 2 | 4 | 1 | 18% | 2 | 6 | 0 | 0 |
| CN1CCN(C(=S)Nc2ccc(Nc3ccc([N+](=O)[O-])cc3)cc2)CC1 [AMOCARZINE] | 0 | 0 | 0% | 0 | 0 | 4 days - 2 months | 0 | 0 | 1 | 0 | 0% | 0 | 0 | 0 | 0 |
| Clc1ccc2c(c1)C(N1CCNCC1)=Nc1ccccc1O2 [AMOXAPINE] | 0 | 0 | 0% | 2 | 0 | 4 days - 18 days | 0 | 0 | 2 | 0 | 0% | 0 | 2 | 0 | 0 |
| N#C[C@H](O[C@@H]1O[C@H](CO[C@@H]2O[C@H](CO)[C@@H](O)[C@H](O)[C@H]2O)[C@@H](O)[C@H](O)[C@H]1O)c1ccccc1 [AMYGDALIN] | 0 | 0 | 0% | 0 | 0 | 2 days | 0 | 0 | 0 | 0 | 0% | 1 | 0 | 0 | 0 |
| C=CCC(C(=O)NC(N)=O)C(C)C (stereo not given) [APRONAL] | 0 | 0 | 0% | 0 | 0 | 2 days - 2 years | 0 | 0 | 0 | 0 | 0% | 0 | 2 | 0 | 2 |
